Converted amounts (≈) assume the structure as drawn.
What was measured:
[1] = Antioxidant activity assessed as DPPH radical scavenging activity; format: functional
Trichophyton rubrum = assay: Antimicrobial activity against Trichophyton rubrum assessed as inhibition zone at 10 ug/disk; format: functional; conditions: read-out: IZ
RAW264.7 [2] = assay: Antiinflammatory activity against mouse RAW264.7 cells assessed as inhibition of LPS-induced COX2 expression; format: functional, cell-based
RAW264.7 [3] = assay: Antiinflammatory activity in mouse RAW 264.7 cells assessed as inhibition of LPS-induced nitric oxide production measured after 48 hrs by Griess reagent assay; format: functional, cell-based; conditions: RAW264.7, 48 h
[4] = Inhibition of elastase (unknown origin); parameters: species or system Homo sapiens
[5] = Antioxidant activity assessed as hydrogen peroxide scavenging activity; format: functional
RAW264.7 [6] = assay: Antiinflammatory activity in mouse RAW264.7 cells assessed as reduction in LPS-induced nitric oxide production; format: functional, cell-based; conditions: Mus musculus, RAW264.7
Staphylococcus aureus [7] = assay: Antibacterial activity against Staphylococcus aureus assessed as inhibition of bacterial growth; format: functional, organism-based
[8] = tested on: Staphylococcus epidermidis; assay: Antibacterial activity against Staphylococcus epidermidis assessed as reduction in bacterial growth; format: functional, organism-based
Mus musculus [9] = assay: Anxiolytic activity in mouse assessed as increase in time spent in open arm at 5 mg/kg, po measured after 60 mins by elevated plus maze test; format: functional; conditions: 1 h
Mus musculus [10] = assay: Anxiolytic activity in mouse assessed as number of entries in open arm at 5 mg/kg, po measured after 60 mins by elevated plus maze test; format: functional; conditions: 1 h
Staphylococcus aureus [11] = assay: Antibacterial activity against Staphylococcus aureus ATCC 25923 assessed as inhibition of bacterial growth; format: functional, organism-based
Staphylococcus aureus [12] = assay: Antibacterial activity against Staphylococcus aureus ATCC 29213 assessed as inhibition of bacterial growth; format: functional, organism-based
Staphylococcus aureus [13] = assay: Antibacterial activity against Staphylococcus aureus ATCC 43300 assessed as inhibition of bacterial growth; format: functional, organism-based
[14] = molecular target: Cyclin-dependent kinase 1/cyclin B (Homo sapiens, UniProt P06493); assay: Inhibition of CDK1/Cyclin B (unknown origin) in presence of ATP by scintillation counter analysis; format: protein-complex assay
SGC-7901 = assay: Cytotoxicity against human SGC-7901 cells assessed as reduction in cell viability; format: functional, cell-based; conditions: Homo sapiens, SGC-7901; read-out: IC50
Bel-7402 = assay: Cytotoxicity against human Bel-7402 cells assessed as reduction in cell viability; format: functional, cell-based
HL-60 = assay: Cytotoxicity against human HL-60 cells assessed as reduction in cell viability by MTT assay; format: functional, cell-based
BV-2 [15] = assay: Antiinflammatory activity in mouse BV2 cells assessed as reduction in LPS-induced nitric oxide production at 10 uM relative to control; format: functional; parameters: scale not given: the % may be the effect or the level left
NCI-H460 = assay: Cytotoxicity against human NCI-H460 cells assessed as reduction in cell viability; format: functional, cell-based
M14 = assay: Cytotoxicity against human M14 cells assessed as reduction in cell viability; format: functional, cell-based
SK-OV-3 = assay: Cytotoxicity against human SK-OV-3 cells assessed as reduction in cell viability; format: functional, cell-based
BV-2 [16] = assay: Antiinflammatory activity in mouse BV2 cells assessed as reduction in LPS-induced nitric oxide production; format: functional, cell-based
CT26.WT = assay: Cytotoxicity against mouse CT26.WT cells by MTT assay; format: functional, cell-based
B16-F10 = assay: Cytotoxicity against mouse B16-F10 cells by MTT assay; format: functional, cell-based
CHO = assay: Cytotoxicity against CHO cells by MTT assay; format: functional, cell-based; conditions: Cricetulus griseus
MeWo = assay: Cytotoxicity against human MeWo cells by MTT assay; format: functional, cell-based
Pichia kudriavzevii = assay: Antifungal activity against Candida krusei assessed as inhibition of fungal growth measured after 48 hrs by CLSI based agar dilution method; format: functional, organism-based

Compound: Cc1c(C)c2c(c(C)c1O)CCC(C)(C(=O)O)O2 (centres undefined) [TROLOX]
- IC50 ([1]; read-out: IC50): 11.7 µM

Compound: Oc1ccc2c(c1)CCc1cc(O)cc(O)c1-2
- IC50 ([1]; read-out: IC50): 16.2 µM

Compound: COc1cc2c(c(OC)c1O)-c1c(ccc(O)c1O)CC2
- zone of inhibition at 10 µg/disc (Trichophyton rubrum): 12.7 mm

Compound: COc1cc(OC)c2c(ccc3cc(OC)c(O)cc32)c1
- IC50 (RAW264.7 [2]): 1.8 µM

Compound: C=Cc1c(C)c(O)cc2c1CCc1c-2ccc(O)c1C
- IC50 (RAW264.7 [3]): 4.9 µM
- IC50 [4]: 5.5 µM

Compound: C[C@@H]1O[C@@H](OC[C@H]2O[C@@H](Oc3c(-c4ccc(O)c(O)c4)oc4cc(O)cc(O)c4c3=O)[C@H](O)[C@@H](O)[C@@H]2O)[C@H](O)[C@H](O)[C@H]1O [RUTIN]
- IC50 [1]: 2.5 µg/mL

Compound: COc1cc2c(c(OC)c1O)-c1ccc(O)cc1CC2 [FLAVANTHRIDIN]
- IC50 [5]: 2 µM

Compound: C=Cc1cc(O)cc2c1-c1cc(-c3c(O)cc(C=C)c4c3ccc3c(C)c(O)ccc34)c(O)c(C)c1CC2
- IC50 (RAW264.7 [6]): 7.4 µM

Compound: COc1cc(O)c2c(c1)CCc1cc(O)cc(O)c1-2
- IC50 ([1]; read-out: IC50): 10.2 µM

Compound: COc1cc(O)c2c(c1C)CCc1cc(O)c(C)cc1-2
- IC50 (Staphylococcus aureus [7]): 12.5 µg/mL (≈ 46.2 µM)
- IC50 [8]: 12.5 µg/mL (≈ 46.2 µM)

Compound: COc1cc(O)c2c(c1)CCc1cc(O)c(-c3c(/C=C/c4cccc(O)c4)cc(O)cc3OC)cc1-2
- EC50 [1]: 47.3 µM

Compound: COc1cc(O)c2c(c1)CCc1cc(O)c(-c3c(OC)cc(O)c4c3ccc3cc(O)ccc34)cc1-2
- IC50 [1]: 12.9 µg/mL

Compound: CN1C(=O)CN=C(c2ccccc2)c2cc(Cl)ccc21 [DIAZEPAM]
- Time (Mus musculus [9]): 111.9 s
- Activity (Mus musculus [10]): 13.6

Compound: COc1cc(O)c(-c2c(O)cc(OC)c3c2ccc2cc(O)ccc23)c2ccc3cc(O)ccc3c12 [CIRRHOPETALANTHIN]
- IC50 (Staphylococcus aureus [11]): 6.25 µg/mL (≈ 13.1 µM)
- IC50 (Staphylococcus aureus [12]): 6.25 µg/mL (≈ 13.1 µM)
- IC50 (Staphylococcus aureus [13]): 6.25 µg/mL (≈ 13.1 µM)

Compound: COc1cc(O)c(-c2cc3c(cc2O)CCc2cc(OC)cc(O)c2-3)c(CCc2cccc(O)c2)c1
- EC50 [1]: 55.9 µM

Compound: C=Cc1ccc(CO)c2c1-c1ccc(O)c(C)c1CC2
- IC50 (RAW264.7 [6]): 14.4 µM

Compound: Cc1c(O)ccc2c1CCc1cc(O)cc(CO)c1-2
- IC50 (RAW264.7 [6]): 16 µM

Compound: COc1cc2c(c(O)c1OC)CCc1cc(O)c(OC)c(OC)c1-2
- IC50 [14]: 0.07 µM

Compound: COC1=CC(=O)C2=C(CCc3cccc(O)c32)C1=O [EPHEMERANTHOQUINONE B]
- IC50 (SGC-7901): 2.9 µg/mL (≈ 11.3 µM)
- IC50 (Bel-7402): 1.8 µg/mL (≈ 7.02 µM)
- IC50 (HL-60): 3 µM

Compound: Cc1c(O)cc2c3c1CCc1c(C)c(O)cc(c1-3)C2C
- Activity (BV-2 [15]): 11.2%

Compound: COC1=CC(=O)c2c(ccc3cccc(O)c23)C1=O
- IC50 (NCI-H460): 5 µM
- IC50 (M14): 1.5 µM

Compound: C=Cc1c(C)c(O)cc2c1-c1ccc(O)c(C)c1CC2
- IC50 (RAW264.7 [3]): 3.1 µM
- Time (Mus musculus [9]): 58.8 s
- Activity (Mus musculus [10]): 6.6

Compound: C=Cc1c(C)c(O)cc2c1ccc1c(C)c(O)ccc12
- IC50 (RAW264.7 [3]): 3.2 µM

Compound: COc1cc2cc(O)cc(OC)c2c2c(O)cccc12
- IC50 (RAW264.7 [6]): 24.1 µM
- IC50 ([1]; read-out: IC50): 6.8 µM
- IC50 [5]: 19 µM

Compound: COc1cc(O)c2c(c1)CCc1cc(O)c(-c3c(OC)cc(O)c4c3CCc3c-4ccc(O)c3-c3c(OC)cc(O)c4c3CCc3cc(O)ccc3-4)cc1-2
- IC50 (SK-OV-3): 41.5 µg/mL (≈ 57.4 µM)
- IC50 [1]: 4.8 µg/mL

Compound: COc1cc(O)c2c(c1-c1c(OC)cc(O)c3c1CCc1cc(O)ccc1-3)CCc1cc(O)ccc1-2
- EC50 [1]: 7.7 µM

Compound: OC[C@H]1O[C@@H](O[C@H]2[C@H](O)[C@@H](O)[C@H](Oc3ccc4ccc5ccc(O)cc5c4c3O)O[C@@H]2CO)[C@H](O)[C@@H](O)[C@@H]1O
- IC50 (BV-2 [16]): 15.3 µg/mL (≈ 27.8 µM)

Compound: COc1c(O)cc2c3c1COc1cc(O)c(Cc4ccc(O)cc4)c(c1-3)CC2
- IC50 (RAW264.7 [6]): 20.8 µM

Compound: COc1cc2c(c(O)c1C)CCc1c-2ccc(O)c1C=O
- IC50 (CT26.WT): 4 µg/mL (≈ 14.1 µM)
- IC50 (B16-F10): 8 µg/mL (≈ 28.1 µM)
- IC50 (CHO): 6 µg/mL (≈ 21.1 µM)
- IC50 (MeWo): 5 µg/mL (≈ 17.6 µM)
- IC50 (Pichia kudriavzevii): 31.3 µg/mL (≈ 110 µM)

Compound: COC1=C(OC)C(=O)c2c(ccc3cccc(O)c23)C1=O
- IC50 (HL-60): 4.7 µM

Compound: O=c1c(O)c(-c2ccc(O)c(O)c2)oc2cc(O)cc(O)c12 [QUERCETIN]
- IC50 (RAW264.7 [6]): 6.6 µM

Compound: COc1cc(O)c2c(c1Cc1ccc(O)cc1)CCc1cc(O)ccc1-2
- IC50 [1]: 12.2 µg/mL

From ChEMBL document CHEMBL5244207, “Phenanthrenes: A Promising Group of Plant Secondary Metabolites” (J Nat Prod, 2018)
